Laboratory results: patent US20240194290A1, “HIDDEN ANTIBIOTICS IN THE HUMAN PROTEOME” (THE TRUSTEES OF THE UNIVERSITY OF PENNSYLVANIA, priority 2021, published 2024)
Ends that are not written are not given here.

How the values were obtained:
Assay in all cases: Outer membrane permeabilization (NPN uptake) assay
Details in all cases: peptides at MIC
P. aeruginosa PAO1 = format: cell-based, Pseudomonas aeruginosa
Procedure: (§1) FIG. 10. Membrane permeabilization and depolarization assays for several bacterial strains. […] FIG. 10B: Cytoplasmic membrane depolarization assays performed against P. aeruginosa PAO1 and the gut commensal B. fragilis ATCC25285.
(§2) Methods: Membrane depolarization assays. The cytoplasmic membrane depolarization activity of the peptides was determined by measurements of fluorescence of the membrane potential-sensitive dye, DiSC3(5). Briefly, A. baumannii ATCC19606, P. aeruginosa PAO1 and B. fragilis ATCC25285 were grown at 37° C. with agitation until they reached mid-log phase (OD600=0.5). […] Thereafter, the cells (100 μL) were incubated for 15 min with 20 nmol L^−1 of DiSC3(5) until a stable reduction of fluorescence was achieved, indicating the incorporation of the dye into the bacterial membrane. Membrane depolarization was then monitored by observing the change in the fluorescence emission intensity of the membrane potential-sensitive dye, DiSC3(5) (λex=622 nm, λem=670 nm), after the addition of peptides (100 μL solution at MIC values). […] The membrane permeability of the peptides was determined by using the N-phenyl-1-napthylamine (NPN) uptake assay. […] The background fluorescence was recorded at λex=350 nm and λem=420 nm. […]

B. fragilis ATCC25285 = format: cell-based, Bacteroides fragilis
Procedure: as §1, §2

S. epidermidis = format: cell-based, Staphylococcus epidermidis
Procedure: as §1, §2

Measured: outer membrane permeabilization (NPN)

SKEMFPRSFIKLLRSKVSRFLRPYK [SCUB1-SKE25]
permeabilized: all assays above
